According to article PMC3480388 (PLoS ONE, 2012):
Residue numbers refer to the chain shown, from its start. Read-outs that look alike come from different tables or passages of the source. Values belong to the compound of their own block, whether it stands above or below them.

Experiments:
[1] = biological target: T1, rP2X2 K69C mutant receptor (Rattus norvegicus, UniProt P49653, K69C); assay: Two-electrode voltage clamp of Xenopus oocytes expressing K69C mutant rP2X2; format: cell-based; settings: for restoration of ability to respond to ATP after test compound: test compound 1 mM, 1 minute, then 1,000 µM ATP; for Response after challenge compound (nA) 100 µM Zn / Response after challenge compound (nA) 1,000 µM ATP / Response after challenge compound (nA) pH 6.5: test compound 50 µM, 5 minutes; for binding to and activation of K69C receptors: tested for responses to zinc, pH 6.5 and ATP, then challenge with AM546 or MTSEA; for amplitude of response to 100 µM zinc: K69C after AM546 then MTSEA, N = 6
T1 construct: expressed in transfected cells; host or cells: Xenopus laevis oocytes (RNA injection)
T1 sequence (P49653 1-472 K69C): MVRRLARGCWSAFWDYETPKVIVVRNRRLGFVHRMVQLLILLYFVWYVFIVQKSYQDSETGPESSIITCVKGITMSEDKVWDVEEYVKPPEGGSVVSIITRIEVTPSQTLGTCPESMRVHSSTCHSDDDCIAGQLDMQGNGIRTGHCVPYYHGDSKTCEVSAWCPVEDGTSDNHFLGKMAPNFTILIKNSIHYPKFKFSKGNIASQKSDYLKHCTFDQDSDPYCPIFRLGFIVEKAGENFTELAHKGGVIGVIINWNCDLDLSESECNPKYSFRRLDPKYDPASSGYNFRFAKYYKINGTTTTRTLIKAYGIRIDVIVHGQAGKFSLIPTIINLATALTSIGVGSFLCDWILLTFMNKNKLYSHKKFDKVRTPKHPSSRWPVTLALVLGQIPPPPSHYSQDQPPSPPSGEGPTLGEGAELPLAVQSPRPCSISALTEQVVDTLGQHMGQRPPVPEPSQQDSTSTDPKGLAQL

[2] = biological target: T2, rP2X2 K308C mutant receptor (Rattus norvegicus, UniProt P49653, K308C); assay: Two-electrode voltage clamp of Xenopus oocytes expressing K308C mutant rP2X2; format: cell-based; settings: for restoration of ability to respond to ATP after test compound: test compound 1 mM, 15 minutes, then 1,000 µM ATP
T2 construct: expressed in transfected cells; host or cells: Xenopus laevis oocytes (RNA injection)
T2 sequence (P49653 1-472 K308C): T1 sequence (P49653 1-472 K69C) with C69K, K308C

wild type rP2X2 [3] = biological target: T3, wild type rP2X2 (Rattus norvegicus, UniProt P49653); assay: Two-electrode voltage clamp of Xenopus oocytes expressing wild type rP2X2; format: cell-based
T3 construct: expressed in transfected cells; host or cells: Xenopus laevis oocytes (RNA injection)
T3 sequence (P49653 1-472): T1 sequence (P49653 1-472 K69C) with C69K

[4] = biological target: T4, rP2X2 K69C/H319K double mutant (Rattus norvegicus, UniProt P49653, H319K/K69C); assay: Two-electrode voltage clamp of Xenopus oocytes expressing K69C/H319K double mutant rP2X2; format: cell-based
T4 construct: expressed in transfected cells; host or cells: Xenopus laevis oocytes (RNA injection)
T4 sequence (P49653 1-472 K69C/H319K): T1 sequence (P49653 1-472 K69C) with H319K

uninjected oocytes = assay: Two-electrode voltage clamp of uninjected oocytes (control); format: cell-based, Xenopus laevis; settings: N = 14
Method: This study was carried out in strict accordance with the recommendations in the Guide for the Care and Use of Laboratory Animals of the National Institutes of Health. The protocol was approved by the University Committee on the Use and Care of Animals of the University of Michigan (Protocol 08396-4). The rP2X2 receptors were expressed in defolliculated stage V-VI Xenopus laevis oocytes. Oocytes were harvested using procedures that have been described in detail previously.
RNAs encoding wild type and mutant rP2X2 receptors were synthesized using the mMessage mMachine T7 kit (Life Technologies, Grand Island, NY). Each oocyte was injected with 50 nl of RNA (10–20 ng/µl). Two-electrode voltage clamp experiments were performed 2–5 days after RNA injection. Except where indicated otherwise, recordings were made at a holding potential of −50 mV. Recording electrodes were pulled from thin walled borosilicate glass and had resistances of 0.2–1 MΩ. Currents were recorded with a Turbo TEC-03 or TEC-10 voltage clamp amplifier (npi electronic GmBH, Tamm, Germany). Data acquisition was performed using a Digidata 1322A interface controlled by pCLAMP 9 or 10 (Molecular Devices, Sunnyvale, CA).
To regulate the delivery of most test solutions into the recording chamber, we used a gravity fed valve array. […]

wild type rP2X2 [5] = biological target: T3, wild type rP2X2; settings: cited from earlier work
[6] = system: P2X1 mutant homologous to K69A; settings: ref [28]; cited from earlier work
[7] = AM546-treated K69C, no exogenous ATP

Compound: CSS(C)(=O)=O [MMTS, Methyl Methanethiosulfonate]
restoration of ability to respond to ATP after test compound [1]: None of these compounds restored the ability
restoration of ability to respond to ATP after test compound [2]: None of these compounds restored the ability

Compound: [Cl-].[Cl-].[Zn+2] [zinc, Zinc chloride]
current as % of the maximum after addition of zinc (wild type rP2X2 [3]; 20 µM zinc, ATP giving 10% of maximum at pH 7.5): 80–90%
amplitude of response to 100 µM zinc ([1]; with 1,000 µM ATP): 2.74±0.47 µA
amplitude of response to 100 µM zinc ([1]; without ATP): 0.39±0.06 µA
Izinc average current ([2]; untreated K308C, 100 µM zinc, N = 6): −5±4 nA
additional inward current in response to zinc ([4]; 50 µM zinc, after AM546, 'over' refers to magnitude): over −6 µA
current in response to zinc alone ([4]; 50 µM zinc, before AM546, no exogenous ATP, N = 12): −2.9±0.9 µA
average response to a zinc jump (uninjected oocytes; 50 µM zinc): +8.6±1.9 nA
enhancement of the current by a zinc jump (wild type rP2X2 [5]; untreated wild type, EC10 ATP, pH 7.5, 20 µM zinc, ref [17], [20]): approximately 8 fold

Compound: Nc1ncnc2c1ncn2C1OC(COP(=O)(O)OP(=O)(O)OP(=O)(O)O)C(O)C1O (stereo not drawn) [ATP, Disodium ATP]
inward current (wild type rP2X2 [3]; 1,000 µM ATP, same RNA concentration as K69C, 'over' refers to magnitude): over −20 µA
EC50 (wild type rP2X2 [3]; wild type rP2X2): 32 ± 1 µM
ATP response ([1]; AM546-modified K69C, 1,000 µM ATP, 'greater than' refers to magnitude): greater than −100 nA
EC50 ([1]; MTSEA-modified K69C): 924 ± 102 µM
Hill coefficient (ATP) ([1]; MTSEA-modified K69C): 1.4±0.1
EC50 ([2]; MTSEA-modified K308C): 374 ± 35 µM
Hill coefficient (ATP) ([2]; MTSEA-modified K308C): 1.3±0.1
EC50 [4]: ~145 µM
Hill Coefficient (typical value for wild type rP2X2) (wild type rP2X2 [5]; typical value used to estimate basal ATP levels, ref not given): 1.5

Compound: C[N+](C)(C)CCSS(C)(=O)=O.[Cl-] [MTSET, [2-(Trimethylammonium)ethyl] Methanethiosulfonate Chloride]
restoration of ability to respond to ATP after test compound [1]: None of these compounds restored the ability
restoration of ability to respond to ATP after test compound [2]: None of these compounds restored the ability

Compound: Cc1ccc(C(=O)Nc2ccc(S(=O)(=O)O)c3cc(S(=O)(=O)O)cc(S(=O)(=O)O)c23)cc1NC(=O)c1cccc(NC(=O)Nc2cccc(C(=O)Nc3cc(C(=O)Nc4ccc(S(=O)(=O)O)c5cc(S(=O)(=O)O)cc(S(=O)(=O)O)c45)ccc3C)c2)c1 [suramin, Suramin]
outward suramin currents due to inhibition of basal ATP (wild type rP2X2 [3]; cells with maximal currents to saturating ATP of about −20 µA): 10–500 nA
Hill coefficient (suramin) (wild type rP2X2 [3]; no exogenous ATP, N = 11): 1.2±0.1
IC50 (wild type rP2X2 [3]; read-out: suramin IC50 (outward current response)): 8.3 ± 1.1 µM
Hill coefficient (suramin activation) [1, 7]: 1.1±0.1
maximal response to suramin (inward current) [1, 7]: −450±51 nA
response to suramin ([1]; K69C prior to AM546 treatment, no exogenous ATP): no response
EC50 ([1]; read-out: suramin EC50 (activation)): 52 ± 5 µM
average suramin response (uninjected oocytes): −1.3±1.9 nA
IC50 for suramin [6]: normal

The remaining lines, values ahead:

Response after challenge compound (nA) 100 µM Zn ([1]; then challenge compound AM-546): −10±9 nA
Response after challenge compound (nA) 1,000 µM ATP ([1]; then challenge compound AM-546): −10±3 nA
Response after challenge compound (nA) pH 6.5 ([1]; then challenge compound AM-546): −16±5 nA
binding to and activation of K69C receptors [1]: could bind to, but not activate
Compound: Alexa Fluor 488 C5-maleimide [AM-488]

Response after challenge compound (nA) 100 µM Zn ([1]; then challenge compound MTSEA): −2±1 nA
Response after challenge compound (nA) 1,000 µM ATP ([1]; then challenge compound MTSEA): −26±7 nA
Response after challenge compound (nA) pH 6.5 ([1]; then challenge compound MTSEA): −7±5 nA
binding to and activation of K69C receptors [1]: could bind to, but not activate
Compound: Alexa Fluor 594 C5-maleimide [AM-594]

Response after challenge compound (nA) 100 µM Zn ([1]; then challenge compound MTSEA): −9±4 nA
Response after challenge compound (nA) 1,000 µM ATP ([1]; then challenge compound MTSEA): −41±9 nA
Response after challenge compound (nA) pH 6.5 ([1]; then challenge compound MTSEA): −25±0 nA
binding to and activation of K69C receptors [1]: could bind to, but not activate
Compound: Alexa Fluor 568 C5-maleimide [AM-568]
